Source: paper PMC11249646, “Small-Molecule Disruptors of the Interaction between Calcium- and Integrin-Binding Protein 1 and Integrin αIIbβ3 as Novel Antiplatelet Agents” (ACS Pharmacology & Translational Science, 2024)
Read-outs that look alike come from different tables or passages of the source.

Biological target: T1, CIB1 and αIIb interaction (CIB1-GST : F-αIIb peptide) (Homo sapiens, UniProt Q99828)
T1 construct: made in house; host or cells: BL-21 plus RIL cells (E. coli)
T1 sequence (Q99828 1-191): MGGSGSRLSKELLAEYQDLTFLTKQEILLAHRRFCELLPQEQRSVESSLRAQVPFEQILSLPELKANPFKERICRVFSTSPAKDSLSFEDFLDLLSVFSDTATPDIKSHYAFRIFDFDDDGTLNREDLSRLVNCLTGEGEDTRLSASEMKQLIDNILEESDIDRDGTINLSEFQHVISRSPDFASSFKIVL
Experiment: FP assay, 1536-well qHTS format (primary and confirmatory screen)
Format: binding
Settings: for Curve Class: negative sign = inhibitory curve

[1] = qHTS primary screen hits, Table S2, negative = inhibition
[2] = qHTS primary screen hits, Table S2, several classes where COUNT > 1
[3] = qHTS primary screen hits, Table S2, read-out: IC50
[4] = qHTS primary screen of LOPAC/NPACT libraries, negative = inhibition
[5] = qHTS primary screen of LOPAC/NPACT libraries
[6] = qHTS primary screen of LOPAC/NPACT libraries, read-out: IC50
[7] = qHTS primary screen hits, Table S2
[8] = qHTS FP screen hits, Table S2, negative = inhibition
[9] = qHTS FP screen hits, Table S2, read-out: IC50

SMILES | Efficacy (%) [1] [%] | Curve Class [2] | IC50 [3] [µM] | Curve Class [7] | also measured
CS(=O)(=O)O.CSc1ccc2c(c1)C(N1CCN(C)CC1)Cc1ccccc1S2 (stereo not shown) [NCGC00024665-06] |  |  |  |  | Efficacy (%) [4]: -28%; Curve Class [5]: -2.4; IC50 [6]: 56.2 µM
CC(=O)N[C@@H](Cc1c[nH]c2ccccc12)C(=O)OCc1cc(C(F)(F)F)cc(C(F)(F)F)c1 [NCGC00024832-04] |  |  |  |  | Efficacy (%) [4]: -16%; Curve Class [5]: -1.2; IC50 [6]: 39.8 µM
O=C(Nc1cccc(C(=O)Nc2ccc(S(=O)(=O)O)c3cc(S(=O)(=O)O)cc(S(=O)(=O)O)c23)c1)Nc1cccc(C(=O)Nc2ccc(S(=O)(=O)O)c3cc(S(=O)(=O)O)cc(S(=O)(=O)O)c23)c1 [NCGC00025069-04] |  |  |  |  | Efficacy (%) [4]: -37%; Curve Class [5]: -1.4; IC50 [6]: 0.316 µM
CC(=O)c1c(O)c(C)c(O)c(Cc2c(O)c3c(c(C(=O)/C=C/c4ccccc4)c2O)OC(C)(C)C=C3)c1O [NCGC00025228-08] | -45 |  | 28.2 | -1.2 | 
Cc1ccc(C)n1-c1cccc(C(=O)O)c1.O=C(O)C(F)(F)F [NCGC00060597-04] |  |  |  |  | Efficacy (%) [8]: -32%; IC50 [9]: 32.3 µM
Cc1cc(N2CCN(c3ccccc3)CC2)nc(-n2nc(C)cc2C)n1.O=C(O)C(F)(F)F [NCGC00067399-02] | -30 |  | 56.2 | -2.4 | 
NC(=O)N/N=C/c1ccc([N+](=O)[O-])o1 [NCGC00090686-07] | -26 |  | 112 | -2.4 | 
Cc1ccc(N)cc1O [NCGC00090702-02] | -38 |  | 126 | -2.2 | 
Oc1cccc2cccnc12 [NCGC00090708-05] |  |  |  |  | Efficacy (%): -29%; IC50 (IC50 [μM]): 117 µM
Nc1ccccc1N [NCGC00090885-03] | -77 |  | 113 |  | 
O=C(O)c1cc(/N=N/c2ccc(S(=O)(=O)Nc3ccccn3)cc2)ccc1O [NCGC00090903-11] |  |  |  |  | Efficacy (%) [8]: -43%; Curve Class (qHTS FP screen hits, Table S2, one class per curve where COUNT > 1): -2.2; IC50 [9]: 25.1 µM
CCCCCCCCCCCC[N+](C)(C)CCOc1ccccc1.[Br-] [NCGC00091010-03] | -55 |  | 89.1 | -3 | 
CCCCCCCCCCCCCCCC[n+]1ccccc1.[Br-] [NCGC00091023-06] | -31 | -2.4 | 89.1 |  | 
CC[n+]1c(-c2ccccc2)c2cc(N)ccc2c2ccc(N)cc21.[Br-] [NCGC00091387-08] | -61 | -2.4 | 56.2 |  | 
CCOC(=O)c1c(NC(=O)CN2CCCCC2)sc2c1CCN(C(=O)OCC)C2.O=C(O)C(F)(F)F [NCGC00092717-02] | -31 |  | 89.1 | -2.4 | 
O=C(N[C@@H](Cc1ccccc1)C(=O)CCl)OCc1ccccc1 [NCGC00093742-04] |  |  |  |  | Efficacy (%) [4]: -19%; Curve Class [5]: -1.2; IC50 [6]: 10 µM
C[C@@]1(C2CCCC2)Cc2cc(OCC(=O)O)c(Cl)c(Cl)c2C1=O [NCGC00094034-06] |  |  |  |  | Efficacy (%) [4]: -28%; Curve Class [5]: -2.2; IC50 [6]: 25.1 µM
N[C@@H](CCC(=O)N[C@H](CSN=O)C(=O)NCC(=O)O)C(=O)O [NCGC00094150-03] |  |  |  |  | Efficacy (%) [4]: -13%; Curve Class [5]: -1.2; IC50 [6]: 12.6 µM
Oc1cc(O)cc(/C=C/c2ccc(O)c(O)c2)c1 [NCGC00094226-07] |  |  |  |  | Curve Class [5]: -1.2; IC50 [6]: 3.2 µM
C=C1C(=O)O[C@@H]2[C@H]3O[C@]3(C)CC/C=C(/C)CC[C@@H]12 [NCGC00094250-05] |  |  |  |  | Efficacy (%) [4]: -19%; Curve Class [5]: -1.2; IC50 [6]: 10 µM
C[C@H](O)C(=O)C1=Nc2c(nc(N)[nH]c2=O)NC1 [NCGC00094391-03] | -40 |  | 35.5 | -2.2 | 
N#CC(=C(\N)Sc1ccccc1N)/C(C#N)=C(/N)Sc1ccccc1N [NCGC00094462-03] |  |  |  |  | Efficacy (%) [4]: -18%; Curve Class [5]: -3; IC50 [6]: 20 µM
Oc1c(Br)cc(Br)c2cccnc12 [NCGC00094815-05] | -41 | -2.2 |  |  | 
S=P(N1CC1)(N1CC1)N1CC1 [NCGC00095042-06] | -44 |  |  | -2.2 | IC50 (IC50 [μM]): 126 µM
COc1ccc(Nc2cc(C)nc(-n3nc(C)cc3C)n2)cc1Cl.O=C(O)C(F)(F)F [NCGC00134126-02] | -30 | -2.4 | 50.1 |  | 
Oc1cc(Cl)ccc1Oc1ccc(Cl)cc1Cl [NCGC00159417-06] | -22 |  | 100 | -2.4 | 
O=C(CS)Nc1ccccc1 [NCGC00160366-02] | -44 |  | 89.1 | -3 | 
CC[PH](CC)(CC)[Au][S][C@@H]1O[C@H](COC(C)=O)[C@@H](OC(C)=O)[C@H](OC(C)=O)[C@H]1OC(C)=O [NCGC00160391-05] |  |  |  |  | Efficacy (%) [8]: -30%; IC50 [9]: 17.1 µM
COC1=C(OC)C(=O)C(CCCCCCCCCCO)=C(C)C1=O [NCGC00160514-02] | -26 | -2.4 | 50.1 |  | 
O=C(Nc1ccc(Oc2ccc(Cl)cc2)c(Cl)c1)c1cc(I)cc(I)c1O [NCGC00160556-02] | -27 |  | 89.1 | -2.4 | 

Continued, in another order:

Efficacy (%) [1] [%] | Curve Class [2] | IC50 [3] [µM] | Curve Class [7] | SMILES | also measured
-15 | -1.2 | 5.6 |  | CNC[C@H](O)c1cccc(O)c1 [NCGC00024257-06] | 
-24 | -2.4 | 89.1 |  | C[C@](N)(Cc1ccc(O)c(O)c1)C(=O)O [NCGC00024667-14] | 
-42 |  | 56.2 | -2.2 | Oc1ccccc1C1Nc2cccc3cccc(c23)N1 [NCGC00026112-04] | 
-23 | -2.4 | 79.4 |  | O=S1(=O)N=C(Oc2ccccc2)c2ccccc21 [NCGC00079022-02] | 
-29 | -2.4 | 42.9 |  | CC/C(=C(/CC)c1ccc(O)cc1)c1ccc(O)cc1 [NCGC00090749-11] | 
-74 |  | 28.5 | -2.2 | COc1cc([C@H]2Oc3cc([C@H]4Oc5cc(O)cc(O)c5C(=O)[C@@H]4O)ccc3O[C@@H]2CO)ccc1O [NCGC00091057-06] | 
-60 |  | 56.2 | -2.4 | CN(C)c1ccc(C(=C2C=CC(=[N+](C)C)C=C2)c2ccc(N(C)C)cc2)cc1.[Cl-] [NCGC00091112-09] | 
-33 |  | 113 |  | Nc1cccc2c(N)cccc12 [NCGC00091284-03] | 
-134 |  | 4 |  | Cc1cc2nc3c(=O)[nH]c(=O)nc-3n(C[C@H](O)[C@H](O)[C@H](O)CO)c2cc1C [NCGC00091288-05] | 
-86 |  | 19.1 |  | CC(=O)[C@]1(O)Cc2c(O)c3c(c(O)c2[C@@H](O[C@H]2C[C@H](N)[C@H](O)[C@H](C)O2)C1)C(=O)c1ccccc1C3=O [NCGC00093976-06] | 
-33 | -2.2 | 39.8 |  | Nc1ccc(-c2nc3ccc(-c4nc5cc(N)ccc5[nH]4)cc3[nH]2)cc1 [NCGC00094031-06] | 
-37 | -2.4 | 56.2 |  | Oc1ccc(Cl)c2cccnc12 [NCGC00095303-04] | 
-50 | -2.2 | 50.1 |  | Cc1c(Cl)cccc1-n1c(CCC(=O)O)ccc1-c1cccs1 [NCGC00100415-03] | 
-33 |  | 50.1 | -2.2 | Cc1cc(Cl)ccc1-n1c(CCC(=O)O)ccc1-c1cccs1 [NCGC00100435-03] | 
-18 |  | 21.3 |  | NC[C@H](O)c1ccc(O)c(O)c1 [NCGC00159406-07] | 
-94 |  | 100 | -3 | CC(C)=CCOc1ccc(/C=C/C(=O)c2ccc(OCC=C(C)C)cc2OCC(=O)O)cc1 [NCGC00159481-03] | 
-54 |  | 42.2 |  | COCCCOc1ccnc(C[S+]([O-])c2nc3ccccc3[n-]2)c1C.[Na+] (stereo not shown) [NCGC00159518-05] | 
-60 | -2.4 | 56.2 |  | CN1CCN(CCC(=O)N2c3ccccc3Sc3ccc(C(F)(F)F)cc32)CC1.Cl [NCGC00160483-02] | 
-32 | -2.4 | 79.4 |  | CSc1ccc(/C=C2/C(C)=C(CC(=O)O)c3cc(F)ccc32)cc1 [NCGC00161601-02] | 
-29 | -2.4 | 50.1 |  | Cc1ccc(S(=O)(=O)Nc2cc(S(=O)(=O)c3ccc(C)cc3)c(O)c3cccnc23)cc1 [NCGC00161699-01] | 
-37 | -2.4 | 50.1 |  | O=S(=O)(Nc1cc(O)cc2cccnc12)c1ccc(Cl)s1 [NCGC00161701-01] | 
-40 | -2.4 | 56.2 |  | COc1cc(NS(=O)(=O)c2ccc([N+](=O)[O-])cc2)c2ncccc2c1 [NCGC00161705-01] | 
-35 | -2.4 | 56.2 |  | COc1cc(NS(=O)(=O)c2cccc([N+](=O)[O-])c2)c2ncccc2c1 [NCGC00161706-01] | 
